Test results as given in patent publication US20120115157A1, “Methods for Screening for Antibiotic Compounds” (Trustees of Dartmouth College, priority 2009, published 2012).
Converted amounts (≈) assume the structure as drawn.

Each molecule was assayed on S. aureus (assay: Minimum Inhibitory Concentration (MIC), inhibition of growth of S. aureus in vitro). Conditions: Staphylococcus aureus.
Type: cell-based
Text: The next step will be to test the drugs for activity in vitro to inhibit growth of bacterial cells and determination of minimum inhibitory concentration (MIC) doses for the drugs. Determining MIC doses is a standard assay in development of antibiotic drugs and methods are well known in the art. For example, MIC can be determined according to the Clinical and Laboratory Standards Institute guidelines.
Once the compounds of the present invention were identified through the MazEF screening assay described above, the activity of the compounds to inhibit growth of S. aureus in vitro was tested using the standard method of determining Minimum Inhibitory Concentrations (MICS). Such methods are well known to those of skill in the art since determining MIC doses is a standard assay in development of antibiotic drugs. For example, MIC values can be determined according to the Clinical and Laboratory Standards Institute guidelines. In Table 1, the MIC values are presented for each of the ten compounds identified through the MazEF screening assay as having potential for antibiotic activity in S. aureus.

In order of falling MIC:
1. CCN1CCc2c(sc(NC(=O)Nc3ccc(Cl)cc3)c2C(N)=O)C1 [Compound 9, 2-({[(4-chlorophenyl)amino]carbonyl}amino)-6-ethyl-4,5,6,7-tetrahydrothieno[2,3-c]pyridine-3-carboxamide]  100 µg/mL (≈ 264 µM)
2. COc1ccc(/C=C\C(=O)C2C(=O)c3ccccc3C2=O)cc1 [Compound 10]  100 µg/mL (≈ 326 µM)
3. CN(C)c1ccc(/C=C2\SC(=S)N(C(Cc3ccccc3)C(=O)O)C2=O)cc1 (centres unmarked) [Compound 1, 2-{5-[4-(dimethylamino)benzylidene]-4-oxo-2-thioxo-1,3-thiazolidin-3-yl}-3-phenylpropanoic acid]  12.5 µg/mL (≈ 30.3 µM)
4. Cc1ccc(Nc2nc3nonc3nc2N)c(C)c1 [Compound 4, N-(2,4-dimethylphenyl)[1,2,5]oxadiazolo [3,4-b]pyrazine-5,6-diamine]  12.5 µg/mL (≈ 48.8 µM)
5. O=C1c2ccccc2-c2onc3ccc(Cl)c1c23 [Compound 5, 5-chloro-6H-anthra[1,9-cd]isoxazol-6-one]  6.25 µg/mL (≈ 24.4 µM)
